Measured values as given in US20220030865A1, “COMPOSITIONS COMPRISING FLORPYRAUXIFEN THAT SAFEN WHITE CLOVER AND METHODS OF USE THEREOF” (CORTEVA AGRISCIENCE LLC, priority 2018, published 2022).

Tests used:
[1] = test system: tall buttercup (RANAC, Ranunculus acris); test: Field trial, postemergence herbicidal effect on pasture weeds
Excerpt: (§1) Trials were designed as randomized complete blocks with four replicates. All trials were established with a minimum plot size of 3 meters (m) by 8 m (width×length). All herbicide treatments were applied post-emergence with applications made to the undesirable vegetation. Herbicides were applied with backpack sprayers using carbon dioxide (CO2) as a propellant. The sprayers utilized flat fan spray nozzles calibrated to deliver a uniform spray pattern that provided thorough coverage of the foliage using a 187 L/ha spray volume. All treatments were applied with Activator 90 non-ionic surfactant at 0.25% v/v.
(§2) The weeds were evaluated on the number of days after application (DAA) given in each table below. Injury to the weeds was assessed visually at several intervals after application as percent overall injury, compared to an untreated control plot. The overall injury assessments were based on visual ratings of growth inhibition, leaf deformity, epinasty, and chlorosis.

[2] = test system: mayweed chamomile (ANTCO, Anthemis cotula); test: as above; details: 14 DAA
Excerpt: as §1, §2

[3] = test system: Virginia pepperweed (LEPVI, Lepidium virginicum); test: as above; details: 27 DAA
Excerpt: as §1, §2

[4] = test system: sickle pod (CASOB, Senna obtusifolia); test: as above
Excerpt: as §1, §2

[5] = test system: bitter sneezeweed (HENAM, Helenium amarum); test: as above
Excerpt: as §1, §2

[6] = test system: annual yellow sweetclover (MEUIN, Melilotus indicus); test: as above; details: 30 DAA
Excerpt: as §1, §2

[7] = test system: annual marsh-elder (IVAAN, Iva annua); test: as above
Excerpt: as §1, §2

[8] = test system: brown knapweed (CENJA, Centaurea jacea); test: as above
Excerpt: as §1, §2

[9] = test system: goldenrod (SOOSS, Solidago sp.); test: as above; details: 67 DAA
Excerpt: as §1, §2

[10] = test system: hairy aster (ASTPI, Symphyotrichum pilosum); test: as above
Excerpt: as §1, §2

[11] = test system: white clover (TRFRE, Trifolium repens); test: Field trial United States, safening effect (visual injury) on white clover
Excerpt: Field trials were established in multiple states in the United States to evaluate the safening effect of herbicide treatments to white clover (TRFRE, Trifolium repens) in existing pasture lands. Trials were designed as randomized complete blocks with four replicates. All trials were established with a minimum plot size of 3 meters (m) by 8 m (width×length).
All herbicide treatments were applied post-emergence with applications made to the white clover. Herbicides were applied with backpack sprayers using carbon dioxide (CO2) as a propellant. The sprayers utilized flat fan spray nozzles calibrated to deliver a uniform spray pattern that provided thorough coverage of the foliage using a 187 L/ha spray volume. All treatments were applied with Activator 90 non-ionic surfactant at 0.25% v/v.
The white clover was evaluated on the number of days after application (DAA) given in each table below. Injury to the white clover was assessed visually at several intervals after application as percent overall injury, compared to an untreated control plot. The overall injury assessments were based on visual ratings of growth inhibition, leaf deformity, epinasty, and chlorosis.

`O=C(O)COc1ccc(Cl)cc1Cl` [2,4-D Choline, 2,4-D choline] was tested. Which “Visual Weed Control RANAC Obs” value ([1]; 10 DAA, 750 g ae/ha) did it give?
Its value is 8%.

And the “Visual Weed Control RANAC Obs” value ([1]; 40 DAA, 750 g ae/ha)?
The value was 28%.

What about the “Visual Weed Control ANTCO Obs” value ([2]; 840 g ae/ha) of the same compound?
Its value is 30%.

What about the “Visual Weed Control LEPVI Obs” value ([3]; 840 g ae/ha) of the same compound?
Its value is 74%.

What about the “Visual Weed Control CASOB Obs” value ([4]; 30 DAA, 840 g ae/ha) of the same compound?
The value was 10%.

What about the “Visual Weed Control CASOB Obs” value ([4]; 45 DAA, 840 g ae/ha) of the same compound?
The value was 10%.

What about the “Visual Weed Control HENAM Obs” value ([5]; 30 DAA, 840 g ae/ha) of the same compound?
The value was 74%.

What about the “Visual Weed Control HENAM Obs” value ([5]; 80 DAA, 840 g ae/ha) of the same compound?
Its value is 90%.

What about the “Visual Weed Control MEUIN Obs” value ([6]; 840 g ae/ha) of the same compound?
Its value is 20%.

And the “Visual Weed Control IVAAN Obs” value ([7]; 41 DAA, 840 g ae/ha)?
The value was 38%.

And the “Visual Weed Control IVAAN Obs” value ([7]; 56 DAA, 840 g ae/ha)?
The value was 38%.

What about the “Visual Weed Control IVAAN Obs” value ([7]; 75 DAA, 840 g ae/ha) of the same compound?
Its value is 30%.

And the “Visual Weed Control IVAAN Obs” value ([7]; 83 DAA, 840 g ae/ha)?
The value was 35%.

What about the “Visual Weed Control CENJA Obs” value ([8]; 67 DAA, 840 g ae/ha) of the same compound?
Its value is 0%.

And the “Visual Weed Control CENJA Obs” value ([8]; 88 DAA, 840 g ae/ha)?
The value was 0%.

And the “Visual Weed Control CENJA Obs” value ([8]; 117 DAA, 840 g ae/ha)?
The value was 0%.

What about the “Visual Weed Control SOOS Obs” value ([9]; 840 g ae/ha) of the same compound?
The value was 15%.

And the “Visual Weed Control ASTPI Obs” value ([10]; 88 DAA, 840 g ae/ha)?
Its value is 10%.

What about the “Visual Weed Control ASTPI Obs” value ([10]; 117 DAA, 840 g ae/ha) of the same compound?
The value was 5%.

And the “Visual Injury TRFRE Obs” value ([11]; 0 DAA, 754 g ae/ha)?
Its value is 30%.

What about the “Visual Injury TRFRE Obs” value ([11]; 0 DAA, 840 g ae/ha) of the same compound?
Its value is 6.5%.

What about the “Visual Injury TRFRE Obs” value ([11]; 7 DAA, 754 g ae/ha) of the same compound?
Its value is 4.8%.

And the “Visual Injury TRFRE Obs” value ([11]; 7 DAA, 840 g ae/ha)?
Its value is 10%.

And the “Visual Injury TRFRE Obs” value ([11]; 14 DAA, 754 g ae/ha)?
Its value is 86.2%.

And the “Visual Injury TRFRE Obs” value ([11]; 14 DAA, 840 g ae/ha)?
The value was 15%.

And the “Visual Injury TRFRE Obs” value ([11]; 21 DAA, 840 g ae/ha)?
Its value is 11.2%.

What about the “Visual Injury TRFRE Obs” value ([11]; 28 DAA, 840 g ae/ha) of the same compound?
The value was 10%.

With `COc1c(Cl)ccc(-c2nc(C(=O)OCc3ccccc3)c(Cl)c(N)c2F)c1F` [Florpyrauxifen Benzyl, florpyrauxifen benzyl] as the compound, how does the “Visual Weed Control RANAC Obs” value ([1]; 10 DAA, 9.44 g ae/ha) read?
Its value is 0%.

What about the “Visual Weed Control RANAC Obs” value ([1]; 40 DAA, 9.44 g ae/ha) of the same compound?
Its value is 0%.

And the “Visual Weed Control ANTCO Obs” value ([2]; 12.5 g ae/ha)?
The value was 10%.

What about the “Visual Weed Control LEPVI Obs” value ([3]; 9.5 g ae/ha) of the same compound?
Its value is 62%.

What about the “Visual Weed Control LEPVI Obs” value ([3]; 12.5 g ae/ha) of the same compound?
Its value is 70%.

What about the “Visual Weed Control LEPVI Obs” value ([3]; 19 g ae/ha) of the same compound?
The value was 65%.

And the “Visual Weed Control CASOB Obs” value ([4]; 30 DAA, 12.5 g ae/ha)?
Its value is 10%.

And the “Visual Weed Control CASOB Obs” value ([4]; 30 DAA, 19 g ae/ha)?
Its value is 10%.

And the “Visual Weed Control CASOB Obs” value ([4]; 45 DAA, 12.5 g ae/ha)?
Its value is 10%.

And the “Visual Weed Control CASOB Obs” value ([4]; 45 DAA, 19 g ae/ha)?
The value was 10%.

And the “Visual Weed Control HENAM Obs” value ([5]; 30 DAA, 9.5 g ae/ha)?
Its value is 60%.

And the “Visual Weed Control HENAM Obs” value ([5]; 30 DAA, 12.5 g ae/ha)?
Its value is 60%.

What about the “Visual Weed Control HENAM Obs” value ([5]; 80 DAA, 12.5 g ae/ha) of the same compound?
The value was 40%.

And the “Visual Weed Control MEUIN Obs” value ([6]; 19 g ae/ha)?
The value was 10%.

What about the “Visual Weed Control IVAAN Obs” value ([7]; 41 DAA, 12.5 g ae/ha) of the same compound?
The value was 38%.

And the “Visual Weed Control IVAAN Obs” value ([7]; 41 DAA, 19 g ae/ha)?
The value was 50%.

And the “Visual Weed Control IVAAN Obs” value ([7]; 56 DAA, 12.5 g ae/ha)?
The value was 42%.

And the “Visual Weed Control IVAAN Obs” value ([7]; 75 DAA, 9.5 g ae/ha)?
The value was 25%.

And the “Visual Weed Control IVAAN Obs” value ([7]; 75 DAA, 12.5 g ae/ha)?
Its value is 48%.

And the “Visual Weed Control IVAAN Obs” value ([7]; 83 DAA, 9.5 g ae/ha)?
Its value is 30%.

And the “Visual Weed Control IVAAN Obs” value ([7]; 83 DAA, 12.5 g ae/ha)?
The value was 48%.

What about the “Visual Weed Control CENJA Obs” value ([8]; 67 DAA, 19 g ae/ha) of the same compound?
Its value is 62%.

What about the “Visual Weed Control CENJA Obs” value ([8]; 88 DAA, 19 g ae/ha) of the same compound?
Its value is 62%.

What about the “Visual Weed Control CENJA Obs” value ([8]; 117 DAA, 9.5 g ae/ha) of the same compound?
Its value is 21%.

And the “Visual Weed Control CENJA Obs” value ([8]; 117 DAA, 19 g ae/ha)?
The value was 31%.

And the “Visual Weed Control SOOS Obs” value ([9]; 9.5 g ae/ha)?
Its value is 75%.

What about the “Visual Weed Control ASTPI Obs” value ([10]; 88 DAA, 9.5 g ae/ha) of the same compound?
The value was 75%.

And the “Visual Weed Control ASTPI Obs” value ([10]; 117 DAA, 9.5 g ae/ha)?
The value was 20%.
